According to ChEMBL document CHEMBL1201862, “PubChem BioAssay data set” (2004):
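Exposure lasted 48 hours, with cells grown in 96-well plates and compounds tested at five concentrations. GI50 marks 50% less growth.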 Calls of active or inactive are those of the source. No stated cut-off is given here; in the data, active = GI50 up to about 1.1 µM and inactive = higher.

How the values were obtained:
Test in all cases: growth of human tumour cells (NCI), 48 h
SK-MEL-5 = test system: SK-MEL-5
786-0 = test system: 786-0
DU-145 = test system: DU-145
SNB-19 = test system: SNB-19
HL-60 = test system: HL-60
COLO 205 = test system: COLO 205
RXF 393 = test system: RXF 393
MCF7 = test system: MCF7
TK-10 = test system: TK-10
SK-MEL-2 = test system: SK-MEL-2
HOP-92 = test system: HOP-92
SN12C = test system: SN12C
NCI-H522 = test system: NCI-H522
NCI-H226 = test system: NCI-H226
HOP-62 = test system: HOP-62
A549 = test system: A549
UACC-257 = test system: UACC-257
UO-31 = test system: UO-31
BT-549 = test system: BT-549
A498 = test system: A498
M14 = test system: M14
Malme-3M = test system: Malme-3M
HCC 2998 = test system: HCC 2998
U-251 = test system: U-251
HCT-116 = test system: HCT-116
EKVX = test system: EKVX
SNB-75 = test system: SNB-75
MDA-N = test system: MDA-N
PC-3 = test system: PC-3
UACC-62 = test system: UACC-62
MOLT-4 = test system: MOLT-4
OVCAR-3 = test system: OVCAR-3
OVCAR-5 = test system: OVCAR-5
SF-268 = test system: SF-268
KM12 = test system: KM12
Hs-578T = test system: Hs-578T
OVCAR-4 = test system: OVCAR-4
RPMI-8226 = test system: RPMI-8226
SK-OV-3 = test system: SK-OV-3
IGROV-1 = test system: IGROV-1
ACHN = test system: ACHN
HT-29 = test system: HT-29
CAKI-1 = test system: CAKI-1
K562 = test system: K562
HCT-15 = test system: HCT-15
LOX IMVI = test system: LOX IMVI
OVCAR-8 = test system: OVCAR-8
SK-MEL-28 = test system: SK-MEL-28
SW-620 = test system: SW-620
SR = test system: SR
NCI-H23 = test system: NCI-H23
NCI/ADR-RES = test system: NCI/ADR-RES
SF-295 = test system: SF-295
MDA-MB-231 = test system: MDA-MB-231
SF-539 = test system: SF-539
MDA-MB-435 = test system: MDA-MB-435
NCI-H460 = test system: NCI-H460
T47D = test system: T47D
CCRF-CEM = test system: CCRF-CEM

SMILES: Nc1c2c(nc3ccccc13)CCCc1ccccc1-2
- GI50 (SK-MEL-5): 8.45 µM (inactive)
- GI50 (786-0): 11.3 µM (inactive)
- GI50 (DU-145): 21.5 µM (inactive)
- GI50 (SNB-19): 11.3 µM (inactive)
- GI50 (HL-60): 5.9 µM (inactive)
- GI50 (COLO 205): 8.32 µM (inactive)
- GI50 (RXF 393): 11.4 µM (inactive)
- GI50 (MCF7): 13.1 µM (inactive)
- GI50 (TK-10): 6.08 µM (inactive)
- GI50 (SK-MEL-2): 13.4 µM (inactive)
- GI50 (HOP-92): 10.1 µM (inactive)
- GI50 (SN12C): 12.8 µM (inactive)
- GI50 (NCI-H522): 17.3 µM (inactive)
- GI50 (NCI-H226): 15.9 µM (inactive)
- GI50 (HOP-62): 12.4 µM (inactive)
- GI50 (A549): 16.3 µM (inactive)
- GI50 (UACC-257): 12.7 µM (inactive)
- GI50 (UO-31): 10.5 µM (inactive)
- GI50 (BT-549): 28.8 µM (inactive)
- GI50 (A498): 8.43 µM (inactive)
- GI50 (M14): 7.91 µM (inactive)
- GI50 (Malme-3M): 18.5 µM (inactive)
- GI50 (HCC 2998): 1.83 µM (inactive)
- GI50 (U-251): 11.3 µM (inactive)
- GI50 (HCT-116): 4.78 µM (inactive)
- GI50 (EKVX): 13.2 µM (inactive)
- GI50 (SNB-75): 13.5 µM (inactive)
- GI50 (MDA-N): 4.17 µM (inactive)
- GI50 (PC-3): 14.3 µM (inactive)
- GI50 (UACC-62): 6.7 µM (inactive)
- GI50 (MOLT-4): 16.6 µM (inactive)
- GI50 (OVCAR-3): 27 µM (inactive)
- GI50 (OVCAR-5): 12.4 µM (inactive)
- GI50 (SF-268): 16.9 µM (inactive)
- GI50 (KM12): 13.1 µM (inactive)
- GI50 (Hs-578T): 22.6 µM (inactive)
- GI50 (OVCAR-4): 20.1 µM (inactive)
- GI50 (RPMI-8226): 5.32 µM (inactive)
- GI50 (SK-OV-3): 33.5 µM (inactive)
- GI50 (IGROV-1): 9.46 µM (inactive)
- GI50 (ACHN): 10.3 µM (inactive)
- GI50 (HT-29): 4.53 µM (inactive)
- GI50 (CAKI-1): 15.9 µM (inactive)
- GI50 (K562): 5.7 µM (inactive)
- GI50 (HCT-15): 13.8 µM
- GI50 (LOX IMVI): 8.69 µM (inactive)
- GI50 (OVCAR-8): 14.1 µM (inactive)
- GI50 (SK-MEL-28): 9.75 µM (inactive)
- GI50 (SW-620): 5.94 µM (inactive)
- GI50 (SR): 7.35 µM (inactive)
- GI50 (NCI-H23): 16.3 µM (inactive)
- GI50 (NCI/ADR-RES): 20.3 µM (inactive)
- GI50 (SF-295): 7.23 µM (inactive)
- GI50 (MDA-MB-231): 5.38 µM (inactive)
- GI50 (SF-539): 8.83 µM (inactive)
- GI50 (MDA-MB-435): 11.3 µM (inactive)
- GI50 (NCI-H460): 2.81 µM (inactive)
- GI50 (T47D): 11 µM (inactive)

SMILES: Cc1cc(=O)[nH]c2cc(NC(=O)C(C)NC(=O)C(C)NC(=O)C(C)NC(=O)OC(C)(C)C)ccc12 (stereo not drawn)
- GI50 (SK-MEL-5): > 15 µM (inactive)
- GI50 (786-0): > 15 µM (inactive)
- GI50 (DU-145): > 15 µM (inactive)
- GI50 (SNB-19): > 15 µM (inactive)
- GI50 (HL-60): > 15 µM (inactive)
- GI50 (COLO 205): > 15 µM (inactive)
- GI50 (RXF 393): > 15 µM (inactive)
- GI50 (MCF7): > 15 µM (inactive)
- GI50 (TK-10): > 15 µM (inactive)
- GI50 (SK-MEL-2): > 15 µM (inactive)
- GI50 (HOP-92): > 15 µM (inactive)
- GI50 (SN12C): > 15 µM (inactive)
- GI50 (NCI-H522): > 15 µM (inactive)
- GI50 (NCI-H226): > 15 µM (inactive)
- GI50 (HOP-62): > 15 µM (inactive)
- GI50 (A549): > 15 µM (inactive)
- GI50 (UACC-257): > 15 µM (inactive)
- GI50 (UO-31): > 15 µM (inactive)
- GI50 (BT-549): > 15 µM (inactive)
- GI50 (A498): > 15 µM (inactive)
- GI50 (M14): > 15 µM (inactive)
- GI50 (HCC 2998): > 15 µM (inactive)
- GI50 (U-251): > 15 µM (inactive)
- GI50 (HCT-116): > 15 µM (inactive)
- GI50 (EKVX): > 15 µM (inactive)
- GI50 (SNB-75): > 15 µM (inactive)
- GI50 (MDA-N): > 15 µM (inactive)
- GI50 (PC-3): > 15 µM (inactive)
- GI50 (UACC-62): > 15 µM (inactive)
- GI50 (MOLT-4): > 15 µM (inactive)
- GI50 (OVCAR-5): > 15 µM (inactive)
- GI50 (SF-268): > 15 µM (inactive)
- GI50 (KM12): > 15 µM (inactive)
- GI50 (Hs-578T): > 15 µM (inactive)
- GI50 (OVCAR-4): > 15 µM (inactive)
- GI50 (CCRF-CEM): > 15 µM (inactive)
- GI50 (IGROV-1): > 15 µM (inactive)
- GI50 (ACHN): > 15 µM (inactive)
- GI50 (HT-29): > 15 µM (inactive)
- GI50 (CAKI-1): > 15 µM (inactive)
- GI50 (K562): > 15 µM (inactive)
- GI50 (HCT-15): > 15 µM
- GI50 (LOX IMVI): > 15 µM (inactive)
- GI50 (OVCAR-8): > 15 µM (inactive)
- GI50 (SK-MEL-28): > 15 µM (inactive)
- GI50 (SW-620): > 15 µM (inactive)
- GI50 (SR): > 15 µM (inactive)
- GI50 (NCI-H23): > 15 µM (inactive)
- GI50 (NCI/ADR-RES): > 15 µM (inactive)
- GI50 (SF-295): > 15 µM (inactive)
- GI50 (MDA-MB-231): > 15 µM (inactive)
- GI50 (SF-539): > 15 µM (inactive)
- GI50 (MDA-MB-435): > 15 µM (inactive)
- GI50 (NCI-H460): > 15 µM (inactive)
- GI50 (T47D): > 15 µM (inactive)
